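A five-concentration, 48-hour dose response in 96-well plates underlies each endpoint, interpolated linearly between surrounding concentrations. TGI denotes the concentration required for complete inhibition of growth.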
Key:
Test in all cases: NCI tumour cell line growth inhibition, 48 h
786-0 renal = system: 786-0 renal
A498 renal = system: A498 renal
A549 NSCLC = system: A549 NSCLC
ACHN renal = system: ACHN renal
CAKI-1 renal = system: CAKI-1 renal
CCRF-CEM leukemia = system: CCRF-CEM leukemia
COLO 205 colon = system: COLO 205 colon
DLD-1 colon = system: DLD-1 colon
DMS 114 small cell lung = system: DMS 114 small cell lung
DMS 273 small cell lung = system: DMS 273 small cell lung
EKVX NSCLC = system: EKVX NSCLC
HCC-2998 colon = system: HCC-2998 colon
HCT-116 colon = system: HCT-116 colon
HCT-15 colon = system: HCT-15 colon
HL-60(TB) leukemia = system: HL-60(TB) leukemia
HOP-18 NSCLC = system: HOP-18 NSCLC
HOP-62 NSCLC = system: HOP-62 NSCLC
HOP-92 NSCLC = system: HOP-92 NSCLC
HT29 colon = system: HT29 colon
IGROV1 ovarian = system: IGROV1 ovarian
K-562 leukemia = system: K-562 leukemia
KM12 colon = system: KM12 colon
KM20L2 colon = system: KM20L2 colon
LOX IMVI melanoma = system: LOX IMVI melanoma
LXFL 529 NSCLC = system: LXFL 529 NSCLC
M14 melanoma = system: M14 melanoma
M19-MEL melanoma = system: M19-MEL melanoma
MALME-3M melanoma = system: MALME-3M melanoma
MOLT-4 leukemia = system: MOLT-4 leukemia
NCI-H226 lung = system: NCI-H226 lung
NCI-H23 lung = system: NCI-H23 lung
NCI-H460 lung = system: NCI-H460 lung
NCI-H522 lung = system: NCI-H522 lung
OVCAR-3 ovarian = system: OVCAR-3 ovarian
OVCAR-4 ovarian = system: OVCAR-4 ovarian
OVCAR-5 ovarian = system: OVCAR-5 ovarian
OVCAR-8 ovarian = system: OVCAR-8 ovarian
RPMI-8226 leukemia = system: RPMI-8226 leukemia
RXF 393 renal = system: RXF 393 renal
RXF-631 renal = system: RXF-631 renal
SF-268 CNS = system: SF-268 CNS
SF-295 CNS = system: SF-295 CNS
SF-539 CNS = system: SF-539 CNS
SK-MEL-2 melanoma = system: SK-MEL-2 melanoma
SK-MEL-28 melanoma = system: SK-MEL-28 melanoma
SK-MEL-5 melanoma = system: SK-MEL-5 melanoma
SK-OV-3 ovarian = system: SK-OV-3 ovarian
SN12C renal = system: SN12C renal
SNB-19 CNS = system: SNB-19 CNS
SNB-75 CNS = system: SNB-75 CNS
SNB-78 CNS = system: SNB-78 CNS
SR leukemia = system: SR leukemia
SW-620 colon = system: SW-620 colon
TK-10 renal = system: TK-10 renal
U251 CNS = system: U251 CNS
UACC-257 melanoma = system: UACC-257 melanoma
UACC-62 melanoma = system: UACC-62 melanoma
UO-31 renal = system: UO-31 renal
XF 498 CNS = system: XF 498 CNS
MCF7 breast = system: MCF7 breast
NCI/ADR-RES ovarian = system: NCI/ADR-RES ovarian
P388 leukemia = system: P388 leukemia
P388/ADR leukemia = system: P388/ADR leukemia
SN12K1 renal = system: SN12K1 renal

Work on `Cc1ccccc1N=Cc1ccc(N(CCC#N)S(=O)(=O)c2ccccc2)cc1` yielded a TGI (786-0 renal) of over 100 µM, a TGI (A498 renal) of over 100 µM and a TGI (A549 NSCLC) of over 100 µM. The TGI (ACHN renal) was over 100 µM, the TGI (CAKI-1 renal) was over 100 µM and the TGI (CCRF-CEM leukemia) was over 100 µM. The TGI (COLO 205 colon) was over 100 µM, the TGI (DLD-1 colon) was over 100 µM and the TGI (DMS 114 small cell lung) was over 100 µM. The TGI (DMS 273 small cell lung) was over 100 µM, the TGI (EKVX NSCLC) was over 100 µM and the TGI (HCC-2998 colon) was over 100 µM. It also gave a TGI (HCT-116 colon) of over 100 µM, a TGI (HCT-15 colon) of over 100 µM and a TGI (HL-60(TB) leukemia) of over 100 µM. The TGI (HOP-18 NSCLC) was over 100 µM, the TGI (HOP-62 NSCLC) was over 100 µM and the TGI (HOP-92 NSCLC) was over 100 µM. The TGI (HT29 colon) was over 100 µM, the TGI (IGROV1 ovarian) was over 100 µM and the TGI (K-562 leukemia) was over 100 µM. For the same compound, the TGI (KM12 colon) was over 100 µM, the TGI (KM20L2 colon) was over 100 µM and the TGI (LOX IMVI melanoma) was over 100 µM. For the same compound, the TGI (LXFL 529 NSCLC) was over 100 µM, the TGI (M14 melanoma) was over 100 µM and the TGI (M19-MEL melanoma) was over 100 µM. It also gave a TGI (MALME-3M melanoma) of over 100 µM, a TGI (MOLT-4 leukemia) of over 100 µM and a TGI (NCI-H226 lung) of over 100 µM. For the same compound, the TGI (NCI-H23 lung) was over 100 µM, the TGI (NCI-H460 lung) was over 100 µM and the TGI (NCI-H522 lung) was over 100 µM. The TGI (OVCAR-3 ovarian) was over 100 µM, the TGI (OVCAR-4 ovarian) was over 100 µM and the TGI (OVCAR-5 ovarian) was over 100 µM. The TGI (OVCAR-8 ovarian) was over 100 µM, the TGI (RPMI-8226 leukemia) was over 100 µM and the TGI (RXF 393 renal) was over 100 µM. The TGI (RXF-631 renal) was over 100 µM, the TGI (SF-268 CNS) was over 100 µM and the TGI (SF-295 CNS) was over 100 µM. The TGI (SF-539 CNS) was over 100 µM, the TGI (SK-MEL-2 melanoma) was over 100 µM and the TGI (SK-MEL-28 melanoma) was over 100 µM. It also gave a TGI (SK-MEL-5 melanoma) of over 100 µM, a TGI (SK-OV-3 ovarian) of over 100 µM and a TGI (SN12C renal) of over 100 µM. For the same compound, the TGI (SNB-19 CNS) was over 100 µM, the TGI (SNB-75 CNS) was over 100 µM and the TGI (SNB-78 CNS) was over 100 µM. It also gave a TGI (SR leukemia) of over 100 µM, a TGI (SW-620 colon) of over 100 µM and a TGI (TK-10 renal) of over 100 µM. The TGI (U251 CNS) was over 100 µM, the TGI (UACC-257 melanoma) was over 100 µM and the TGI (UACC-62 melanoma) was over 100 µM. The TGI (UO-31 renal) was over 100 µM and the TGI (XF 498 CNS) was over 100 µM.

`CC1C(=O)C(C)C(c2cccs2)N(N=O)C1c1cccs1` (stereo not given) was tested, and the TGI (A498 renal) was over 100 µM, the TGI (A549 NSCLC) was over 100 µM and the TGI (CAKI-1 renal) was over 100 µM. The TGI (CCRF-CEM leukemia) was over 100 µM, the TGI (COLO 205 colon) was over 100 µM and the TGI (DLD-1 colon) was over 100 µM. For the same compound, the TGI (DMS 114 small cell lung) was over 100 µM, the TGI (DMS 273 small cell lung) was over 100 µM and the TGI (EKVX NSCLC) was over 100 µM. For the same compound, the TGI (HCC-2998 colon) was over 100 µM, the TGI (HCT-116 colon) was over 100 µM and the TGI (HCT-15 colon) was over 100 µM. The TGI (HL-60(TB) leukemia) was over 100 µM, the TGI (HOP-62 NSCLC) was over 100 µM and the TGI (HOP-92 NSCLC) was over 100 µM. It also gave a TGI (HT29 colon) of over 100 µM, a TGI (IGROV1 ovarian) of over 100 µM and a TGI (K-562 leukemia) of over 100 µM. For the same compound, the TGI (KM12 colon) was over 100 µM, the TGI (KM20L2 colon) was over 100 µM and the TGI (LOX IMVI melanoma) was over 100 µM. It also gave a TGI (M19-MEL melanoma) of over 100 µM, a TGI (MALME-3M melanoma) of over 19.7 µM and a TGI (MCF7 breast) of over 100 µM. For the same compound, the TGI (MOLT-4 leukemia) was over 100 µM, the TGI (NCI-H226 lung) was over 100 µM and the TGI (NCI-H23 lung) was over 100 µM. For the same compound, the TGI (NCI-H460 lung) was over 100 µM, the TGI (NCI-H522 lung) was over 100 µM and the TGI (NCI/ADR-RES ovarian) was over 100 µM. For the same compound, the TGI (OVCAR-3 ovarian) was over 100 µM, the TGI (OVCAR-4 ovarian) was over 100 µM and the TGI (OVCAR-5 ovarian) was over 100 µM. It also gave a TGI (OVCAR-8 ovarian) of over 100 µM, a TGI (P388 leukemia) of over 100 µM and a TGI (P388/ADR leukemia) of over 100 µM. The TGI (RPMI-8226 leukemia) was over 100 µM, the TGI (RXF 393 renal) was over 100 µM and the TGI (SF-268 CNS) was over 100 µM. It also gave a TGI (SF-295 CNS) of over 100 µM, a TGI (SF-539 CNS) of over 100 µM and a TGI (SK-MEL-2 melanoma) of over 100 µM. For the same compound, the TGI (SK-MEL-28 melanoma) was over 100 µM, the TGI (SK-MEL-5 melanoma) was over 100 µM and the TGI (SK-OV-3 ovarian) was over 100 µM. The TGI (SN12C renal) was over 100 µM, the TGI (SN12K1 renal) was over 100 µM and the TGI (SNB-19 CNS) was over 100 µM. It also gave a TGI (SNB-75 CNS) of over 93 µM, a TGI (SNB-78 CNS) of over 100 µM and a TGI (SW-620 colon) of over 100 µM. For the same compound, the TGI (U251 CNS) was over 100 µM, the TGI (UACC-257 melanoma) was over 100 µM and the TGI (UACC-62 melanoma) was over 100 µM. For the same compound, the TGI (UO-31 renal) was over 100 µM and the TGI (XF 498 CNS) was over 100 µM.
